How the values were obtained:
[1] = biological target: T1, recombinant p110α E545K mutant protein (Homo sapiens, UniProt P42336, E545K); assay: In vitro lipid kinase assay; type: biochemical; conditions: either alone or in the presence of IRS1
T1 construct: 6×His; made in house; host or cells: Sf9 insect cells (baculovirus)
Method: FIGS. 3(A-M) illustrate: (A, B) Mapping peptides (P3, SEQ ID NO: 1; P4 SEQ ID NO: 2; P5, SEQ ID NO: 3; P6, SEQ ID NO: 4) derived from mutant p110α that inhibit interaction between IRS1 and p110α E545K. The indicated peptides were added into cell lysates made from the p110α E545K 3×FLAG KI cells. Cell lysates were immunoprecipitated with beads conjugated with anti-FLAG antibodies and then blotted with anti-IRS1 antibodies. (C) Immunoblots of cell lysates made from the p110α E545K 3×FLAG KI cells. Cell lysates were immunoprecipitated with beads conjugated with anti-FLAG antibodies and then blotted with the indicated antibodies. (D) Immunoblots of cell lysate of Myc-tagged IRS1 plasmid, which co-transfected an ABD domain deletion construct of the FLAG-tagged p110α E545K mutant (ΔABD), incubated with the indicated amount of stapled p110α mutant peptides, and then immunoprecipitated with anti-FLAG antibodies and blotted with the indicated antibodies. (J, K) Immunoblot and graph of purified recombinant p110α E545K mutant proteins mixed with the indicated components and quantified using an in vitro lipid kinase assay. (L, M) Immunoblots of the indicated cell lines serum-starved, stimulated with 1 μg/ml insulin for 30 min, and then treated with or without the indicated peptides. Cell lysates were blotted with the indicated antibodies. All error bars show mean±SEM. *p<0.05, **p<0.001, t test. […]

[2] = test system: AKT and Foxo1 phosphorylation; assay: Immunoblot of AKT signaling in peptide-treated xenograft tumors; type: in vivo, mice
Method: FIG. 6 is an immunoblot illustrating the stapled mutant peptide inhibits AKT signaling in xenograft tumors.
Five-week-old male athymic nude mice were injected with 5 million cells subcutaneously and bilaterally. When tumor sizes reached 100-150 mm^3, 10 mice with similar sized tumors on both flanks were selected. The left flank tumors were injected with stapled WT p110α peptide, whereas the right flank tumors were injected with stapled p110α E545K mutant peptide. Each tumor was injected with 250 μg of peptide daily for 14 days. Control xenograft tumors were injected with an equal volume of water. The tumor sizes were measured every 2 days.

[3] = peptide-treated xenograft tumors

T1 sequence (P42336 whole entry E545K): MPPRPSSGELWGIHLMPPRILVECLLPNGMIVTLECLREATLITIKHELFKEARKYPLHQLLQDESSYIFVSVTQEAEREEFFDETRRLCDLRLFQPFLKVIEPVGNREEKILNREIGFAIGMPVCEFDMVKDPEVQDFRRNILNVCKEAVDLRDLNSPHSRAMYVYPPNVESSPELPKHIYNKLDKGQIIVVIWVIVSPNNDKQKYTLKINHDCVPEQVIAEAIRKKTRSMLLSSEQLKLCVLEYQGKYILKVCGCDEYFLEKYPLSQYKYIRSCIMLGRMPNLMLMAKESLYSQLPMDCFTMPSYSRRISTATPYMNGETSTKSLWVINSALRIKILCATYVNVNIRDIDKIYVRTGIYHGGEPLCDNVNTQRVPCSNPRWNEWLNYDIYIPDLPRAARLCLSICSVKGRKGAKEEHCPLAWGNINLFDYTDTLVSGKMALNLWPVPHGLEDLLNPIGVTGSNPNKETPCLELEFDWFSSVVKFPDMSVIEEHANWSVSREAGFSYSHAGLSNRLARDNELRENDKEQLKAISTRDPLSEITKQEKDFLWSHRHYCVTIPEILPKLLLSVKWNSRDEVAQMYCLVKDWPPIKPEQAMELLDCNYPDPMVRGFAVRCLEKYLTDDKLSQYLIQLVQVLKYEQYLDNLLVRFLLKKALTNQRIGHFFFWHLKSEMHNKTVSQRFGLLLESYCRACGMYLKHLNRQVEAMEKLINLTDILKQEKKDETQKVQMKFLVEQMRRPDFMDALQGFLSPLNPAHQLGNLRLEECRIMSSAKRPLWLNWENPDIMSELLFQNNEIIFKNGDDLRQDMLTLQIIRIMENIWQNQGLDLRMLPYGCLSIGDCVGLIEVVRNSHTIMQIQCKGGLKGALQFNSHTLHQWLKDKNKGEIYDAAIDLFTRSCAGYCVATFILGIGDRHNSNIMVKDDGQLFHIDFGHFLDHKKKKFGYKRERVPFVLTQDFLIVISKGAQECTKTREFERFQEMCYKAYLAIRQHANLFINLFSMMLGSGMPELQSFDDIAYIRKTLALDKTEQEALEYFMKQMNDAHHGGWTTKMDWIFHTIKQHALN
T1 sequence (P27986 322-600 partner limits assumed): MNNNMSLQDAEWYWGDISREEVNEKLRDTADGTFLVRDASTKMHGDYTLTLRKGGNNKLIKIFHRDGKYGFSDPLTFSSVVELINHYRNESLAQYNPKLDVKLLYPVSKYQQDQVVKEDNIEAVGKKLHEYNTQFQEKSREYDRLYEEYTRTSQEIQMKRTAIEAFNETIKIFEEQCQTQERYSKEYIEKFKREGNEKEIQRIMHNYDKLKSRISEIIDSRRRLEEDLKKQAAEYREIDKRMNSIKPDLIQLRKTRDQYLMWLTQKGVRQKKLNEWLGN

- kinase activity of recombinant p110α [1]: no effect
Substance: H2N-SEITKQEK-D^549-FLW-S^553-HRHYC-COOH [stapled mutant peptide]
- AKT signaling in xenograft tumors ([2]; FIG. 6 legend): inhibits
- AKT and Foxo1 phosphorylation in xenograft tumors [2, 3]: reduced
- AKT phosphorylation at T308 and S473 residues in xenograft tumors [2, 3]: only decreased AKT phosphorylation at the S473 residue

Reference: patent publication US20140005119A1, “COMPOSITIONS AND METHODS FOR INHIBITING THE ACTIVITY OF P110a MUTANT PROTEINS” (Case Western Reserve University, priority 2012, published 2014)
